Data on one molecule can be found in patent publication US20240277708A1, “Use of [1,2,4] Triazolo [4,3-B] Pyridazine Derivative For Preventing and Treating Senescence and Senescence-Related Diseases” (The Eighth Affiliated Hospital, Sun Yat-Sen University, priority 2023, published 2024).

The structures appear in SMILES notation.

Assay [1] has as its system senescent TC-1 cells. The assay is described as follows: T cell killing assay (LDH release) on bleomycin-induced senescent TC-1 cells with immune cells from treated IPF mice. The assay is classed as cell-based, mouse. The note with it: ratio 1:50, 4 h. On the procedure: 1, The senescence of TC-1 cells was induced with bleomycin, and the senescence of TC-1 cells was reflected through SA-β-Gal staining (FIG. 4A).
2, T cell killing assay: Bleomycin-induced senescent TC1 cells were plated at 10, 000/well in 96-well plates. The cell culture supernatant was discarded the next day, and then, PBMCS, CD3^+ T cells, and CD8^+ T cells isolated from normal mice, saline treated idiopathic pulmonary fibrosis (IPF) mice and C1632-treated IPF mice were add at a ratio of 1:50. After incubation at 37° C. for 4 h, the supematantwas obtained after centrifugation. LDH enzyme was released from the killed senescent cells, and the killing effect of immune cells on senescent cells was detected by LDH kit. Bleomycin at a dose of 2 mg/kg was sprayed into the lungs of mice to construct IPF mouse model, each group of the above experiments had at least 6 mice.
Isolation and culture of CD8^+ T cells: Mouse spleens were ground under sterile conditions and filtered through a 200-mesh sieve. The filtered cells were sorted by CD8^+ T cell isolation kit (biolegend). The sorted T cells were cultured in PRMI1640 medium containing 10% FBS, 5 μg/mL anti-mouse CD28 antibody (biolegend), and 10 ng/mL IL-2 in the plates coated overnight with 5 μg/mL CD3 antibody (biolegend) until use.

Assay [2] relates to C57BL/6 mice, CCl4 liver fibrosis model. Nature of the assay: CCl4-induced liver fibrosis mouse model, collagen staining of liver sections. The format is in vivo. The following applies: 17 mg/kg C1632 after each CCl4 injection. On the procedure: C57BL/6 mice were divided into normal control group, CCl4 group and CCl4+C1632 group, with 7 mice in each group. The mice in the CCl4+C1632 group were injected with 17 mg/kg C1632 for treatment after each injection of CCl4. At the end of the experiment, the mice were sacrificed, and the obtained livers were fixed with 4% paraformaldehyde, dehydrated, embedded and sliced.
1. The collagen fibers in the tissue were stained blue through Masson staining, and the muscle fibers and cytoplasm were stained red through Masson staining. The sections were routinely deparaffinized to water and stained with Weigert's hematoxylin for 5 to 10 minutes. The sections were differentiated with 1% hydrochloric alcohol differentiation solution and washed with water. The sections was returned blue by using Masson bluing solution and washed with water for 1 min. The sections were stained with Ponceau fuchsin staining solution for 5 to 10 min, soaked in 1% glacial acetic acid for a moment, then washed with the phosphomolybdic acid solution for 1 to 2 min. The sections were stained in the aniline blue staining solution for 1 to 2 min after washed with 1% glacial acetic acid for 1 min. The sections were rinsed with 1% glacial acetic acid in three consecutive cylinders for about 8 s, then successively dehydrated by three consecutive cylinders of absolute ethanol for about 5 s, 10 s, and 30 s, and dehydrated by two cylinders of n-butyl alcohol for 30 s and 2 min in turn, and finally permeabilized by two cylinders of xylene for 5 min each time, and sealed with neutral gum.
2. To further verify the effect of C1632 on liver fibrosis, the above tissue sections were subjected to Van Gieson (VG) staining, which was a mature connective tissue staining method to distinguish collagen fibers from muscle fibers. Paraffin sections were deparaffinized into water, and then placed into VG staining solution prepared with acid fuchsin and picric acid, stained for 1 min, quickly washed with water, and quickly dehydrated in three cylinders of absolute ethanol. The sections were placed into xylene for permeabilizing, then sealed with neutral gum and photographed under a microscope.
The sections deparaffinized to water were oxidized with Gordon-Sweets oxidizer for 5 min. After washing with water, the sections were bleached with oxalic acid solution for 1 to 2 min. After washing with distilled water, the sections were mordanted with ferric ammonium sulfate solution for 5 min, then rinsed briefly with water. Gordon-Sweets silver ammonia solution was dropwise added for staining for 3 min. The sections were briefly washed with distilled water, reduced with Gordon-Sweets reducing agent for 1 min and rinsed under running water for 10 min. The nucleus was stained with nuclear fast red staining solution for 5-10 min. […]

The subject of assay [3] is MRC5 cells. The assay is described as follows: VP16-induced cellular senescence, SA-β-gal staining, MRC5 cells. The format is cell-based, Human. The note with it: C1632 120 μM, VP16 40 μM for 4-7 days, FIG. 1A, 1C. On the procedure:
MRC5 and BJ cells were cultured in DMEM low-glucose medium containing 10% FBS. The cells were passaged or plated at a ratio of 1:3.0.5×10^5 cells were plated in 12-well plates and in the next day treated with VP16 at a final concentration of 40 μM for 4-7 days to induce cellular senescence. A cellular senescence model was constructed. While inducing cellular senescence, C1632 with a final concentration of 120 μM is added. The effect of C1632 on the senescence of BJ and MRC5 cells was detected by SA-β-gal staining, and the effect of C1632 on cellular senescence was studied.

As to `CC(=O)N(C)c1cccc(-c2ccc3nnc(C)n3n2)c1` [C1632], the “Killing activity of CD3+ T cells against senescent TC-1 cells (LDH release)” value in assay [1] (CD3+ T cells from C1632-treated IPF mice vs saline-treated IPF mice, FIG. 4C) is “significantly enhanced killing activity”. Moreover, the “Killing activity of CD8+ T cells against senescent cells (LDH release)” value in assay [1] (CD8+ T cells from C1632-treated IPF mice vs normal mice and saline-treated IPF mice, FIG. 4D) was “significantly higher”. Besides, the “Killing activity of PBMC against senescent TC-1 cells (LDH release)” value in assay [1] (PBMC from C1632-treated IPF mice vs saline-treated IPF mice, FIG. 4B) is on record as “significantly enhanced killing activity”. Also, the “Collagen fibers in liver tissue, Masson staining” value in assay [2] (twice a week for 6 weeks, FIG. 5) is “can inhibit the expression of collagen fibers induced by CCl4”. Also, the “Collagen fiber levels in liver tissue, Van Gieson (VG) staining” value in assay [2] (FIG. 6) is given as “significantly reduces collagen fiber levels”. Moreover, the “Reticular fibers in liver tissue, reticular fiber staining” value in assay [2] (FIG. 7) is “can inhibit the expression of reticular fibers induced by CCl4”. Moreover, the “Type I collagen production in liver, Sirius red staining” value in assay [2] (polarized light, FIG. 8) is reported as “can significantly inhibit the production of type I collagen”. Besides, in assay [3], the “VP16-induced senescence (β-gal-positive cell rate) in MRC5 cells” value was “inhibits VP16-induced senescence”.
